Assay results: patent EP4692071A1, “PHOTOCHROMIC COMPOUND, NAPHTHOL DERIVATIVE, CURABLE COMPOSITION, OPTICAL ARTICLE, LENS, AND EYEGLASS” (TOKUYAMA CORPORATION, priority 2023, dated 2024)

Experiments:
Type in all cases: physicochemical
[1] = High-temperature color development rate (A35/A23×100), temperature dependency; conditions: for Temperature change rate (%): comparative compounds, corresponds to A35/A23×100
Protocol: (§1) • [1] Maximum Absorption Wavelength (λmax): The maximum absorption wavelength after color development, measured using a spectrophotometer (instantaneous multichannel photodetector MCPD3000) manufactured by Otsuka Electronics Co., Ltd. was used as an indicator for the color tone during the color development. • [2] 23°C Color Optical Density (A23): A difference between an absorbancy measured after light irradiation at 23°C for 240 seconds {ε(240)} and an absorbancy without light irradiation ε(0) at the maximum absorption wavelength was used as an indicator for the color optical density. […] 35°C Color Optical Density (A35): A difference between an absorbancy measured after light irradiation at 35°C for 240 seconds {ε(240)} and an absorbancy without light irradiation ε(0) at the first and second absorption wavelengths was used as an indicator for the color optical density. […] 23°C color fading half-life [τ1/2 (sec.)]: A time required for the absorbancy of the sample at the maximum absorption wavelength to decrease to 1/2 of {ε(240)-ε(0)} when the light irradiation is terminated after the light irradiation at 23°C for 240 seconds, was used as an indicator for the color fading speed. The shorter this time, the higher the color fading speed. • [6] Residual rate (A90/A0×100): The obtained photochromic plastic lens was subjected to accelerated deterioration using a xenon weather meter X25 manufactured by Suga Test Instruments Co., Ltd. for 90 hours. Subsequently, the color optical density was evaluated before and after the test, then a color optical density before the test (A0) and a color optical density after the test (A90) were measured, and a ratio (A90/A0) was defined as a residual rate. The residual rate was used as an indicator for a color developing durability. The higher the residual rate, the higher the color developing durability.

[2] = 23°C color optical density (A23): absorbancy difference ε(240)-ε(0) after 240 s light irradiation at 23°C; conditions: 240 s irradiation; for 23°C color optical density (-): comparative compounds
Protocol: as §1

[3] = Maximum absorption wavelength (λmax) after color development, spectrophotometer MCPD3000; conditions: for Maximum absorption wavelength: after color development
Protocol: as §1

[4] = Residual rate (A90/A0×100) after 90 h accelerated deterioration in xenon weather meter X25, color developing durability; conditions: for Residual rate (%): xenon weather meter 90 hours; for Residual rate: after 90 h accelerated deterioration
Protocol: as §1

[5] = 35°C color optical density (A35): absorbancy difference ε(240)-ε(0) after 240 s light irradiation at 35°C; conditions: 240 s irradiation; for 35°C color optical density (-): comparative compounds
Protocol: as §1

[6] = photochromic laminate by coating method
[7] = photochromic laminate by coating method, absorption band at 469 nm
[8] = photochromic laminate by coating method, absorption band at 570 nm
[9] = photochromic laminate prepared by coating method
[10] = binder sheet (binder method), urethaneurea resin photochromic layer between polycarbonate sheets, 0.25 mmol per 100 parts by mass resin
[11] = photochromic laminate by coating method, 40 µm photochromic layer on thiourethane lens, 0.25 mmol compound per 100 g monomers
[12] = cured product by kneading method, 1 mm
[13] = photochromic laminate by coating method, at the maximum absorption wavelength
[14] = photochromic cured product by kneading method, 1 mm thick thiourethane, 0.106 mmol per 100 g monomers
[15] = photochromic laminate by coating method, absorption band at 463 nm
[16] = photochromic laminate by coating method, absorption band at 573 nm

SMILES | Residual rate (%) [4, 6] [%] | A35/A23 *100 (%) ([1]; binder sheet (binder method)) | A23 (-) ([2]; binder sheet (binder method)) | Maximum absorption wavelength (nm) [3, 10] [nm] | Maximum absorption wavelength (nm) [3, 11] [nm] | Residual rate (%) ([4]; binder sheet (binder method)) | A35 (-) ([5]; binder sheet (binder method)) | A35/A23 *100 (%) [1, 12] [%] | A35/A23 *100 (%) [1, 6] [%] | A23 (-) [2, 12] | A23 (-) [2, 13] | Maximum absorption wavelength (nm) [3, 14] [nm] | Residual rate (%) [4, 12] [%] | A35 (-) [5, 12] | A35 (-) [5, 6] | other results
COc1ccc(C2(c3ccc(OC)cc3)C=Cc3c4c(c5cc(Sc6c(C)cccc6C)c(OC)cc5c3O2)-c2ccccc2C4(C)C)cc1 [Formula (C), reference compound] | 73 | – | – | – | – | – | – | – | – | – | – | – | – | – | – | Temperature change rate (%) [1, 6]: 65%; 23°C color optical density (-) [2, 7]: 1.20 -; 23°C color optical density (-) [2, 8]: 0.77 -; Maximum absorption wavelength (nm) ([3]; photochromic laminate by coating method, 40 µm photochromic layer on thiourethane lens, 0.25 mmol compound per 100 g monomers, absorption band at 469 nm): 469 nm; Maximum absorption wavelength (nm) ([3]; photochromic laminate by coating method, 40 µm photochromic layer on thiourethane lens, 0.25 mmol compound per 100 g monomers, absorption band at 570 nm): 570 nm; 35°C color optical density (-) [5, 7]: 0.78 -; 35°C color optical density (-) [5, 8]: 0.50 -
COc1ccc(C2(c3ccc(OC)cc3)C=Cc3c4c(c5cc(N6CCCCC6)c(OC)cc5c3O2)-c2ccccc2C4(C)C)cc1 [Formula (E), reference compound] | 51 | 70 | 1.85 - | 481 | 481 | 68 | 1.30 - | – | – | – | – | – | – | – | – | A35/A23 *100 ([1]; binder sheet (binder method)): 70%; Temperature change rate (%) [1, 6]: 71%; A35/A23 *100 [1, 9]: 71%; 23°C color optical density (-) [2, 6]: 1.81 -; Maximum absorption wavelength ([3]; binder sheet (binder method)): 481 nm; Maximum absorption wavelength [3, 9]: 481 nm; Residual rate ([4]; binder sheet (binder method)): 68%; Residual rate [4, 9]: 51%; 35°C color optical density (-) [5, 6]: 1.28 -
COc1ccc(C2(c3ccc(OC)cc3)C=Cc3c4c(c5cc(N(C)c6ccc(F)cc6)c(OC)cc5c3O2)-c2ccccc2C4(C)C)cc1 [Example 4 Formula (34)] | 80 | 66 | 1.20 - | 496 | 496 | 93 | 0.79 - | 67 | 66 | 1.20 - | 1.18 - | 500 | 84 | 0.81 - | 0.78 - | –
COc1ccc(C2(c3ccc(N4CCOCC4)cc3)C=Cc3c4c(c5cc(N6CCOc7ccccc76)c(C)cc5c3O2)-c2ccc(OC)cc2C4(CCCCF)CCCCF)cc1 (stereo not shown) [Example 47 Formula (102)] | 73 | 66 | 1.27 - | 521 | 521 | 88 | 0.84 - | – | 66 | – | 1.25 - | – | – | – | 0.83 - | –
CCCCCCOc1ccc(C2(c3ccc(OC)cc3)C=Cc3c4c(c5cc(N(c6ccc(C)cc6)c6ccc(OC)cc6)c(OC)cc5c3O2)-c2ccccc2C42CC(C)(C)CC(C)(C)C2)cc1 (stereo not shown) [Example 15 Formula (75)] | 75 | – | – | – | 523 | – | – | 63 | 62 | 1.22 - | 1.20 - | 527 | 81 | 0.76 - | 0.74 - | –
CCCCOc1ccc(C2(c3ccc(OCCCC)cc3)C=Cc3c4c(c5cc(NC(=O)c6ccccc6)c(OC)cc5c3O2)-c2ccccc2C4(C)C)cc1 [Formula (B), reference compound] | 68 | – | – | – | – | – | – | – | – | – | – | – | – | – | – | Temperature change rate (%) [1, 6]: 68%; 23°C color optical density (-) [2, 15]: 1.30 -; 23°C color optical density (-) [2, 16]: 0.90 -; Maximum absorption wavelength (nm) ([3]; photochromic laminate by coating method, 40 µm photochromic layer on thiourethane lens, 0.25 mmol compound per 100 g monomers, absorption band at 463 nm): 463 nm; Maximum absorption wavelength (nm) ([3]; photochromic laminate by coating method, 40 µm photochromic layer on thiourethane lens, 0.25 mmol compound per 100 g monomers, absorption band at 573 nm): 573 nm; 35°C color optical density (-) [5, 15]: 0.88 -; 35°C color optical density (-) [5, 16]: 0.62 -
CCCOc1ccc(C2(c3ccc(OCCC)cc3)C=Cc3c4c(c5cc(N(c6ccc(C)cc6)c6ccc(C)cc6)c(OC)cc5c3O2)-c2ccccc2C4(CCCCOCOC)CCCCOCOC)cc1 [Example 14 Formula (71)] | 82 | 70 | 1.93 | 521 | 521 | 94 | 1.36 - | – | 70 | – | 1.89 - | – | – | – | 1.33 - | –
COc1ccc(C2(c3ccc(OC)cc3)C=Cc3c4c(c5cc(N6CCOc7ccccc76)c(OC)cc5c3O2)-c2ccccc2C4(C)C)cc1 [Example 19 Formula (83)] | 77 | 67 | 1.36 - | 515 | 515 | 91 | 0.91 - | 67 | 67 | 1.37 - | 1.34 - | 519 | 83 | 0.91 - | 0.90 - | –
CCCOc1ccc(C2(c3ccc(OCCC)cc3)C=Cc3c4c(c5cc(N(CCOC)c6ccccc6)c(OC)cc5c3O2)-c2ccccc2C42CCCCCCC2)cc1 [Example 6 Formula (47)] | 80 | 71 | 1.37 - | 499 | 499 | 94 | 0.97 - | – | 71 | – | 1.34 - | – | – | – | 0.95 - | –
CCCOc1ccc(C2(c3ccc(OCCC)cc3)C=Cc3c4c(c5cc(N6CCOc7cc(C)ccc76)c(OC)cc5c3O2)-c2ccc(-c3ccc(C(F)(F)F)cc3)cc2C4(CCOC)CCOC)cc1 [Example 48 Formula (106)] | 77 | 65 | 1.39 - | 513 | 513 | 93 | 0.90 - | – | 65 | – | 1.36 - | – | – | – | 0.88 - | –
CCCOc1ccc(C2(c3ccc(OC)cc3)C=Cc3c4c(c5cc(N(C)c6ccccc6)c(C)cc5c3O2)-c2ccc(C)cc2C4(CCCCOC)CCCCOC)cc1 (stereo not shown) [Example 17 Formula (79)] | 78 | – | – | – | 558 | – | – | 69 | 67 | 1.09 - | 1.06 - | 562 | 84 | 0.75 - | 0.71 - | –
CCCCCCC1(CCCCCC)c2cc(Oc3ccccc3)ccc2-c2c1c1c(c3cc(OC)c(N(c4ccccc4)c4ccc(C)cc4)cc23)OC(c2ccc(OC)cc2)(c2ccc(OCCCC)cc2)C=C1 (stereo not shown) [Example 52 Formula (119)] | 79 | – | – | – | 518 | – | – | – | 74 | – | 1.82 - | – | – | – | 1.34 - | –
